Data set [1] concerns mixed culture of bacteria. Description: Minimum concentration required to kill a given number of organisms (MKC), mixed culture of slime-forming bacteria, 5 hours exposure. It is filed as cell-based. The procedure:
The effect of the number of organisms present on the biological activity of tri-n-butyl tetradecyl phosphonium chloride was compared with that for various quaternary ammonium compounds. This was done by measuring the MKC value i.e. the minimum concentration (expressed in ppm active ingredient) of chemical required to kill a given number or organisms. In the test carried out, a suspension of a mixed culture of bacteria containing the following slime-forming organisms:
Proteus vulgaris was diluted to give suspensions containing 10^6 /ml (A), 10^5 /ml (B) and 10^4 /ml (C) bacteria. These suspensions were then exposed to varying concentrations of the biocides for 5 hours and the MKC value measured.

A short description of data set [2]: Standard Ross-Miles foam test. It is filed as physicochemical. The settings on record: 0.05%; for foam production: compared with S or 22.
Data set [3] has as its system Tribonema aequale. Description: Algal growth inhibition (MIC), strain B (Example 7). Type of data set: cell-based. The procedure:
(§1) The algae was diluted (1 to 200) in further algae medium and the phosphonium compounds added to give final concentrations of 1, 2.5, 3.4 and 6.8 ppm active ingredient. The algal suspensions were then incubated in a shaking water bath at 18° C., with a daily cycle of 14 hours light and 10 hours darkness. The suspensions were assessed visually for growth of algae and the Minimum Inhibition Concentration (MIC) was recorded as the lowest concentration of product at which there was no growth for each algal strain. A similar experiment was also carried out using a mixed algal culture including strains a to d together with the following strains:
(§2) The activity of the phosphonium compounds listed below against three strains of algae is determined according to the procedure set out in example 5.

The test system of data set [4] is Haematococcus lacustris. Description: Algal growth inhibition (MIC), strain C (Example 7). Type of data set: cell-based. The procedure:
as §1
The activity of the phosphonium compounds listed below against three strains of algae is determined according to the procedure set out in example 5. The three strains of algae are:
Haematococcus lacustris (C)

Data set [5] concerns Scenedesmus obliquus. Description: Algal growth inhibition (MIC), strain A (Example 7). Type of data set: cell-based. The settings on record: Tetradesmus obliquus. On the procedure:
as §1, §2

Data set [6] can be described thus: Surface tension of dilute aqueous solutions (Example 2). It is filed as physicochemical. As to conditions: FIG. 8, in comparison with 22. The procedure:
The surface activity of the following compounds was measured by determining the surface tension of dilute aqueous solutions of the chemicals: […]

Data set [7] concerns mixed algal culture. In words: Algal growth inhibition (MIC), mixed algal culture (Example 5). It is filed as cell-based. The procedure: as §1
In this experiment the concentrations of phosphonium compounds present were 2, 5, 7.5 and 10 ppm.

Data set [8] relates to Chlorella vulgaris. Description: Algal growth inhibition (MIC), strain c (Example 5). Type of data set: cell-based. The procedure:
(§3) Cultures of the following strains of algae were grown in algae nutrient medium over a period of 14 days:
as §1, with “strains: […]” for “strains:”

For data set [9], the system named is Scenedesmus spec. Description: Algal growth inhibition (MIC), strain d (Example 5). It is filed as cell-based. On the procedure:
as §3
as §1, with “strains: […]” for “strains:”

A short description of data set [10]: Foaming in the cooling system (Example 6). It is filed as physicochemical.
In data set [11] the test system is Phormidium foveolarum. Description: Algal growth inhibition (MIC), strain b (Example 5). Type of data set: cell-based. As to conditions: Nodosilinea foveolarum. On the procedure: as §3
(b) Phormidium foveolarum
as §1, with “strains: […]” for “strains:”

The nature of data set [12]: Reduction of the surface tension of water (Example 6). It is filed as physicochemical. The settings on record: distilled water 72.8 dynes/cm. On the procedure:
The effect of respective test compounds on the surface tension of water was also determined, the results being shown in the following Table:
Reduction of the surface tension.

In data set [13] the test system is germs. In words: Survival rate of germs in circulation systems with cooling tower. The settings on record: 3 h, 20 ppm active ingredient, read-out: Survival rate of germs 3h after biocide addition. On the procedure:
The compounds below were tested in circulation systems, set up on a roof, and consisting of the following:
1. A plastic barrel having a volume of 113 liters.
2. A Siemens pump (21 liters/minute delivery at a delivery hight of 3 meters).
3. A cooling tower with Oreogn pine heartwood, oak, spruce, asbestos cement and PVC panels.
120-124 liters of make-up water were added daily to achieve a half-life in the system of about one day.
The systems were inoculated naturally with airborne dust, spores and pollen.
The systems were treated with compound to be tested on the first day then on day 7, day 21 and over 45 days. The number of germs/ml of water in the system is measured before and 3 hours after addition of the compound being tested.
The germ count was carried out by standard serial dilution and plating out on Agar nutrient and, afer incubation, counting the bacterial colonies present on the surface.
In each case the dosage of compound added was 20 ppm active ingredient.

The subject of data set [14] is Oscillatoria geminata. In words: Algal growth inhibition (MIC), strain a (Example 5). It is filed as cell-based. As to conditions: Jaaginema geminatum. On the procedure:
as §3
(a) Oscillatoria geminata
as §1, with “strains: […]” for “strains:”

The subject of data set [15] is algae. Description: Anti-algal effect, algae in general. Type of data set: cell-based. As to conditions: compared with triphenyl-dodecyl phosphonium chloride. The source says: The anti-algal effect of the respective test compounds was also examined. […] Thus, the compound of the invention when used in an amount of 1 ppm inhibited the algal strains chlorella vulgaris snd scenedesmus spec. (which strains are very significant strains in cooling systems) where 2, 5 or 10 ppm was required when using triphenyl-dodecyl phosphonium chloride.

[16] abbreviates: read-out: MKC, A: 10^6/ml bacteria, ppm active ingredient.
[17] abbreviates: read-out: MKC, B: 10^5/ml bacteria, ppm active ingredient.
The mark [18] stands for this setting: read-out: MKC, C: 10^4/ml bacteria, ppm active ingredient.

Read-outs that look alike come from different tables or passages of the source.

We go through six molecules from patent publication US4874526A, “Treatment of water” (Ciba-Geigy Corporation, priority 1981, dated 1989).

Regarding `CCCCCCCCCC[N+](C)(C)CCCCCCCCCC.[Cl-]` [Dimethyl di-n-decyl ammonium chloride, dimethyl di-n-decyl ammonium chloride, reference compound], the MBC in data set [1] (setting [16]) came to 25 µg/mL; in [1] (setting [17]), 25 µg/mL; in data set [1] (setting [18]), 12.5 µg/mL. In addition, the “Foam Height” value came to 45 mm in data set [2] (1 minute), 40 mm in data set [2] (30 minutes) and 38 mm in [2] (60 minutes).

As to `CCCCCCCCCCCC[P+](CCCC)(CCCC)CCCC.[Cl-]` [Tri-n-butyl dodecyl phosphonium chloride, tri-n-butyl dodecyl phosphonium chloride], the MIC turned out to be 1 µg/mL in [3] (strain B, read-out: MIC); 1 µg/mL in [4] (strain C, read-out: MIC); 2 µg/mL in data set [5] (strain A, read-out: MIC). Also, the “Foam Height” value came to 18 mm in data set [2] (1 minute), 6 mm in data set [2] (30 minutes) and 4 mm in data set [2] (60 minutes). In addition, the foam production entry in data set [2] is “much less foam than S or 22”. The surface activity result in data set [6] is recorded as “high surface activity”.

In the case of `CCCCCCCCCCCC[P+](c1ccccc1)(c1ccccc1)c1ccccc1.[Cl-]` [Triphenyl dodecyl phosphonium chloride, triphenyl dodecyl phosphonium chloride, reference compound], the minimum inhibitory concentration (MIC) in [7] came to 7.5 µg/mL; in data set [8] it was 2.5 µg/mL; in [3], 3 µg/mL; in [9], 3.4 µg/mL; in data set [4] it was 3 µg/mL; in data set [11], 1 µg/mL. Also, the MIC was 3 µg/mL in [5] and 2.5 µg/mL in data set [14]. The “foaming in the cooling system” value in data set [10] was “some foaming problems were encountered”. The Surface tension in data set [12] (5 mg/l) is recorded as 60.2 dynes/cm; in data set [12] (10 mg/l), 59.5 dynes/cm; in data set [12] (15 mg/l) it was 57.9 dynes/cm; in data set [12] (20 mg/l), 56.4 dynes/cm; in data set [12] (30 mg/l), 53.7 dynes/cm. Besides, the viability at 20 ppm in [13] (0 d) is 3%; in data set [13] (7 d), 72%; in data set [13] (21 d), 110%; in data set [13] (>45 d) it was 130%.

With `CCCCCCCCCCCCCC[P+](c1ccccc1)(c1ccccc1)c1ccccc1.[Br-]` [Triphenyl tetradecyl phosphonium bromide, reference compound], the MIC worked out at 3 µg/mL in data set [3] (strain B, read-out: MIC); 6 µg/mL in data set [4] (strain C, read-out: MIC); 6 µg/mL in data set [5] (strain A, read-out: MIC).

On to `CCCCCCCCCCCCCC[P+](CCCC)(CCCC)CCCC.[Br-]` [tri-n-butyl tetradecyl phosphonium bromide], for which the minimal inhibitory concentration (MIC) in data set [7] (mixed culture, concentrations 2, 5, 7.5 and 10 ppm, read-out: MIC) was found to be 2 µg/mL; in [8] (strain c, 18° C., ppm active ingredient, read-out: MIC), 1 µg/mL; in data set [3] (strain B, read-out: MIC) it was 0.3 µg/mL; in data set [9] (strain d, 18° C., ppm active ingredient, read-out: MIC), 1 µg/mL; in [4] (strain C, read-out: MIC) it was 2 µg/mL; in data set [11] (strain b, 18° C., ppm active ingredient, read-out: MIC), 1 µg/mL. The MIC in [5] (strain A, read-out: MIC) was 2 µg/mL; in [14] (strain a, 18° C., ppm active ingredient, read-out: MIC), 2.5 µg/mL.

Consider `CCCCCCCCCCCCCC[P+](CCCC)(CCCC)CCCC.[Cl-]` [tri-n-butyl tetradecyl phosphonium chloride], for which the MBC in data set [1] (setting [16]), in data set [1] (setting [17]) and in data set [1] (setting [18]) was 12.5 µg/mL each time. Moreover, the MIC was 5 µg/mL in data set [7] and 2 µg/mL in [3]. In [15], the activity against algae entry is “more active against algae than triphenyl-dodecyl phosphonium chloride”. Besides, the “Foam Height” value in [2] (1 minute) is listed as 33 mm; in [2] (30 minutes), 19 mm; in data set [2] (60 minutes), 10 mm. For the same molecule, the foam production entry in [2] is listed as “much less foam than S or 22”. The surface activity result in data set [6] was “high surface activity”. The Surface tension in data set [12] (5 mg/l) came to 52.9 dynes/cm; in data set [12] (10 mg/l) it was 48.8 dynes/cm; in data set [12] (15 mg/l), 47.1 dynes/cm; in data set [12] (20 mg/l) it was 45.6 dynes/cm; in data set [12] (30 mg/l), 42.3 dynes/cm. Further, the viability at 20 ppm in [13] (0 d) is 1%; in data set [13] (7 d) it was 9%; in data set [13] (21 d) it was 6%; in data set [13] (>45 d) it was 8%.
